Article PMC3866151, “Phenylthiophenecarboxamide Antagonists of the Olfactory Receptor Co-Receptor Subunit from a Mosquito” (PLoS ONE, 2013)
Read-outs that look alike come from different tables or passages of the source.

Key:
Format in all cases: cell-based
Cqui\Orco+Cqui\Or21 [1] = target: T1, Cqui\Orco+Cqui\Or21 (Culex quinquefasciatus, UniProt Q309I4); assay: Inhibition of odorant (3-methylindole) activation of the OR expressed in Xenopus oocytes, two-electrode voltage clamp; conditions: for IC50: read-out: IC50 for inhibition of responses to 3MI; for Mechanism of inhibition of odorant activation: 10 nM, 100 nM, 1 µM 3-methylindole
T1 sequence (Q309I4 entry or part of it): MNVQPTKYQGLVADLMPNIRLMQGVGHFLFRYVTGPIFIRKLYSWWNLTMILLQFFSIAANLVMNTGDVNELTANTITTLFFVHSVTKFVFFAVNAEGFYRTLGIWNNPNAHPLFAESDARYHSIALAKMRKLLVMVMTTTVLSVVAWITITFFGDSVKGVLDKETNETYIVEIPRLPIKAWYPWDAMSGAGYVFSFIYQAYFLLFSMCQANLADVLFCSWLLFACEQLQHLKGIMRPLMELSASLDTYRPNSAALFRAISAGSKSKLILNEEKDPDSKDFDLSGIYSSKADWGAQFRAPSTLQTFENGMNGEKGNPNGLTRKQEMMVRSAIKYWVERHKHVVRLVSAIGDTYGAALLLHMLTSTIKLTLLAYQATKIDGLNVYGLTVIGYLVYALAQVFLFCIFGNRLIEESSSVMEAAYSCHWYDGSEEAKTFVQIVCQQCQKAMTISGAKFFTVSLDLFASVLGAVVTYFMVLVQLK
Experimental: (§1) Oocytes were surgically removed from mature Xenopus laevis frogs. Follicle cells were removed by treatment with Collagenase B (Boehringer Mannhem) for 2 hours at room temperature. Capped cRNA encoding each OR subunit was generated using mMessage mMachine kits (Ambion). For heteromeric ORs, 25 ng of cRNA encoding each OR subunit was injected into Stage V-VI Xenopus oocytes. For expression of Orco alone, 50 ng of cRNA was injected. Oocytes were incubated at 18°C in Barth's saline (in mM: 88 NaCl, 1 KCl, 2.4 NaHCO3, 0.3 CaNO3, 0.41 CaCl2, 0.82 MgSO4, 15 HEPES, pH 7.6, and 150 µg/ml ceftazidime) for 2–5 days prior to electrophysiological recording.
(§2) Odorant and Orco ligand induced currents were recorded under two-electrode voltage clamp, using an automated parallel electrophysiology system (OpusExpress 6000A; Molecular Devices). Oocytes were perfused with ND96 (in mM: 96 NaCl, 2 KCl, 1 CaCl2, 1 MgCl2, 5 HEPES, pH 7.5). Orco ligands were prepared as 50 or 100 mM stock solutions in DMSO and then diluted into ND96 on the day of the experiment. Unless otherwise noted, applications were for 60 sec at a flow rate of 1.0 ml/min, with extensive washing in ND96 at 4.6 ml/min between applications. For the concentration-response protocol in Figure 1d , applications were for 20 sec at a flow rate of 1.65 ml/min. Micropipettes were filled with 3 M KCl and had resistances of 0.2–2.0 MΩ. The holding potential was -70 mV. Current responses, filtered (4-pole, Bessel, low pass) at 20 Hz (-3 db) and sampled at 100 Hz, were captured and stored using OpusXpress 1.1 software (Molecular Devices).
(§3) To screen for antagonist activity, oocytes were exposed to 60 sec applications of OLC12 with 4 min washes between applications (Figures 1B, 3, 4 and 5A,C,E) or 60 sec applications of odorant with 20 min washes between applications (Figures 1C,D and 5B,D,F). Oocytes were then exposed to a 90 sec application of antagonist candidate, immediately followed by a 60 sec co-application of antagonist candidate and OLC12 or odorant. Oocytes were then exposed to a final 60 sec application of OLC12 or odorant. The current response in the presence of antagonist candidate was compared to the preceding responses to OLC12 or odorant alone.
(§4) Initial analysis of electrophysiological data was done using Clampfit 9.1 software (Molecular Devices). Curve fitting and statistical analyses were done using Prism 5 (Graphpad). Concentration-response data were fit to the equation: I = Imax/(1+(EC50/X)^n) where I represents the current response at a given concentration of odorant, X; Imax is the maximal response; EC50 is the concentration of agonist yielding a half maximal response; n is the apparent Hill coefficient. Concentration-inhibition data were fit to the equation: I = Imax / (1+ (X/IC50)^n) where I represents the current response at a given concentration of inhibitor, X; Imax is the maximal response in the absence of inhibitor; IC50 is the concentration of inhibitor present that still allows a half maximal response from odorant; n is the apparent Hill coefficient. Statistical significance was assessed using a two-tailed unpaired t test, an F test, or a one-way analysis of variance followed by the Dunnett's post-test, as appropriate.

Cqui\Orco+Cqui\Or21 [2] = target: T1, Cqui\Orco+Cqui\Or21; assay: Antagonism of Orco agonist (OLC12) activation of the OR expressed in Xenopus oocytes, two-electrode voltage clamp; conditions: for Inhibition of the OLC12 response compared with OX1a (screen): 100 µM compound; for Inhibition of the OLC12 response compared with OX1a (screen) / Antagonist activity compared with the parent analog or OX1a (second screen): 3 µM OLC12; for Mechanism of inhibition of Orco agonist (OLC12) activation: OLC12 raised from 3 µM to 30 µM; for IC50: read-out: IC50 for inhibition of Cqui\Orco+Cqui\Or21 activation by OLC12; for Antagonist activity compared with the parent analog or OX1a (second screen): 30 µM compound
Experimental: as §1, §2, §3, §4

Cqui\Orco+Cqui\Or21 [3] = target: T1, Cqui\Orco+Cqui\Or21; assay: Agonist activation (concentration-response) of the OR expressed in Xenopus oocytes, two-electrode voltage clamp
Experimental: as §1, §2, §4

[4] = activated by 3 µM OLC12, Xenopus oocytes

nH (apparent Hill coefficient of concentration-inhibition curve) (Cqui\Orco+Cqui\Or21 [2]; [4]) | IC50 (Cqui\Orco+Cqui\Or21 [2]; [4]) | Compound | Inhibition of the OLC12 response compared with OX1a (screen) (Cqui\Orco+Cqui\Or21 [2]) | further results
1.0 ± 0.1 | 1.7 ± 0.2 µM | Cc1ccc(CNC(=O)c2cccs2)cc1 [OX3a, N-(4-methylbenzyl)-2-thiophenecarboxamide] | improved antagonist activity | IC50 (Cqui\Orco+Cqui\Or21 [1]; 10 nM 3MI): 2.6 ± 0.3 µM; Mechanism of inhibition of odorant activation (Cqui\Orco+Cqui\Or21 [1]): non-competitive mechanism; IC50 (Cqui\Orco+Cqui\Or21 [1]; 100 nM 3MI): 2.3 ± 0.2 µM; IC50 (Cqui\Orco+Cqui\Or21 [1]; 1 µM 3MI): 1.9 ± 0.1 µM; Mechanism of inhibition of Orco agonist (OLC12) activation (Cqui\Orco+Cqui\Or21 [2]): competitive mechanism; IC50 (Cqui\Orco+Cqui\Or21 [2]; activated by 10 µM OLC12): 12 ± 1 µM; IC50 (Cqui\Orco+Cqui\Or21 [2]; activated by 30 µM OLC12): 28 ± 2 µM
1.0 ± 0.1 | 51 ± 6 µM | CCc1ccc(NC(=O)c2cccs2)cc1 [OX1a, N-(4-ethylphenyl)-2-thiophenecarboxamide] |  | IC50 (Cqui\Orco+Cqui\Or21 [1]; 10 nM 3MI): 47 ± 5 µM; Mechanism of inhibition of odorant activation (Cqui\Orco+Cqui\Or21 [1]): non-competitive mechanism; IC50 (Cqui\Orco+Cqui\Or21 [1]; 100 nM 3MI): 42 ± 7 µM; IC50 (Cqui\Orco+Cqui\Or21 [1]; 1 µM 3MI): 50 ± 4 µM; Effect on maximal response to 3-methylindole (Cqui\Orco+Cqui\Or21 [1]; 50 µM OX1a co-applied): significantly reduced; Mechanism of inhibition of Orco agonist (OLC12) activation (Cqui\Orco+Cqui\Or21 [2]): competitive antagonist
1.3 ± 0.1 | 14 ± 1 µM | CC(=O)c1cccc(NC(=O)c2cccs2)c1 [OX1i, N-(3-acetylphenyl)-2-thiophenecarboxamide] | significantly improved antagonist activity | 
0.9 ± 0.1 | 5.4 ± 0.4 µM | CCc1ccccc1NC(=O)c1cccs1 [OX1j, N-(2-ethylphenyl)-2-thiophenecarboxamide] | significantly improved antagonist activity | 
1.0 ± 0.1 | 13 ± 1 µM | O=C(Nc1cccc(Cl)c1)c1cccs1 [OX1g, N-(3-cholorphenyl)-2-thiophenecarboxamide] | significant improvement | 
0.8 ± 0.1 | 1.7 ± 0.2 µM | Cc1cccc(NC(=O)c2cccs2)c1C [OX1k, N-(2,3-dimethylphenyl)-2-thiophenecarboxamide] | significantly improved antagonist activity | 
0.9 ± 0.1 | 2.1 ± 0.3 µM | CCc1ccccc1NC(=O)C=Cc1cccs1 [OX4, N-(2-ethylphenyl)-3-(2-thienyl)-2-propenamide] |  | IC50 (Cqui\Orco+Cqui\Or21 [1]; 10 nM 3MI): 3.4 ± 0.6 µM; Mechanism of inhibition of odorant activation (Cqui\Orco+Cqui\Or21 [1]): non-competitive mechanism; IC50 (Cqui\Orco+Cqui\Or21 [1]; 100 nM 3MI): 2.7 ± 0.4 µM; IC50 (Cqui\Orco+Cqui\Or21 [1]; 1 µM 3MI): 2.5 ± 0.3 µM; Antagonist activity compared with the parent analog or OX1a (second screen) (Cqui\Orco+Cqui\Or21 [2]): well tolerated; Mechanism of inhibition of Orco agonist (OLC12) activation (Cqui\Orco+Cqui\Or21 [2]): competitive mechanism; IC50 (Cqui\Orco+Cqui\Or21 [2]; activated by 10 µM OLC12): 8.8 ± 1.2 µM; IC50 (Cqui\Orco+Cqui\Or21 [2]; activated by 30 µM OLC12): 73 ± 5 µM
1.1 ± 0.1 | 5.1 ± 0.5 µM | O=C(NCc1ccccc1)c1cccs1 [OX3b, N-benzyl-2-thiophenecarboxamide] |  | Antagonist activity compared with the parent analog or OX1a (second screen) (Cqui\Orco+Cqui\Or21 [2]): well tolerated

Second part, the compound before the results:

Compound | nH (apparent Hill coefficient of concentration-inhibition curve) (Cqui\Orco+Cqui\Or21 [2]; [4]) | IC50 (Cqui\Orco+Cqui\Or21 [2]; [4]) | Inhibition of the OLC12 response compared with OX1a (screen) (Cqui\Orco+Cqui\Or21 [2]) | further results
Cc1cc(C)c(NC(=O)c2cccs2)c(C)c1 [OX1l, N-mesityl-2-thiophenecarboxamide] | 1.5 ± 0.1 | 3.8 ± 0.3 µM | significantly improved antagonist activity | IC50 (Cqui\Orco+Cqui\Or21 [1]; 10 nM 3MI): 17 ± 1 µM; Mechanism of inhibition of odorant activation (Cqui\Orco+Cqui\Or21 [1]): non-competitive mechanism; IC50 (Cqui\Orco+Cqui\Or21 [1]; 100 nM 3MI): 16 ± 1 µM; IC50 (Cqui\Orco+Cqui\Or21 [1]; 1 µM 3MI): 19 ± 2 µM; Mechanism of inhibition of Orco agonist (OLC12) activation (Cqui\Orco+Cqui\Or21 [2]): competitive mechanism; IC50 (Cqui\Orco+Cqui\Or21 [2]; activated by 10 µM OLC12): 8.3 ± 0.5 µM; IC50 (Cqui\Orco+Cqui\Or21 [2]; activated by 30 µM OLC12): 24 ± 3 µM
O=C(Nc1cccc(Cl)c1)c1sccc1Cl [OX1q, 3-chloro-N-(3-chlorophenyl)-2-thiophenecarboxamide] | 0.9 ± 0.1 | 7.8 ± 0.9 µM |  | Antagonist activity compared with the parent analog or OX1a (second screen) (Cqui\Orco+Cqui\Or21 [2]): well tolerated
Cc1c[nH]c2ccccc12 [Compound 3MI, 3-methylindole] |  |  |  | EC50 (Cqui\Orco+Cqui\Or21 [3]; 3MI alone, read-out: EC50 for activation of Cqui\Orco+Cqui\Or21 by 3MI): 0.032 ± 0.007 µM; EC50 (Cqui\Orco+Cqui\Or21 [3]; in presence of 50 µM OX1a, read-out: EC50 for 3MI activation of Cqui\Orco+Cqui\Or21): 0.037 ± 0.007 µM
Cc1ccc(NC(=O)c2cccs2)cc1 [OX1b, N-(4-methylphenyl)-2-thiophenecarboxamide] |  |  | significantly improved antagonist activity | 
Cc1ccc(NC(=O)c2sccc2Cl)c(C)c1 [OX1o, 3-chloro-N-(2,4-dimethylphenyl)-2-thiophenecarboxamide] | 1.1 ± 0.1 | 5.5 ± 0.7 µM |  | Antagonist activity compared with the parent analog or OX1a (second screen) (Cqui\Orco+Cqui\Or21 [2]): significant loss of antagonist activity
COc1ccc(NC(=O)c2cccs2)cc1 [OX1e, N-(4-methoxyphenyl)-2-thiophenecarboxamide] |  |  | significantly improved antagonist activity | 
O=C(Nc1cccc(Br)c1)c1cccs1 [OX1f, N-(3-bromophenyl)-2-thiophenecarboxamide] |  |  | significant improvement | 
Cc1cccc(NC(=O)c2cccs2)c1 [OX1c, N-(3-methylphenyl)-2-thiophenecarboxamide] |  |  | significantly improved antagonist activity | 
CCN(C(=O)c1cccs1)c1ccccc1 [OX1n, N-ethyl-N-phenyl-2-thiophenecarboxamide] |  |  | improved antagonist activity | 
COc1cccc(NC(=O)c2cccs2)c1 [OX1h, N-(3-methoxyphenyl)-2-thiophenecarboxamide] |  |  | significantly improved antagonist activity | 
CCCC(=O)c1ccc(NC(=O)c2cccs2)cc1 [OX1s, N-(4-butyrylphenyl)-2-thiophenecarboxamide] |  |  |  | Antagonist activity compared with the parent analog or OX1a (second screen) (Cqui\Orco+Cqui\Or21 [2]): significant loss of antagonist activity
Cc1cccc(NC(=O)c2sccc2Cl)c1 [OX1m, 3-chloro-N-(3-methylphenyl)-2-thiophenecarboxamide] |  |  | improved antagonist activity | 
CCC(=O)c1ccc(NC(=O)c2cccs2)cc1 [OX1r, N-(4-propionylphenyl)-2-thiophenecarboxamide] |  |  |  | Antagonist activity compared with the parent analog or OX1a (second screen) (Cqui\Orco+Cqui\Or21 [2]): significant loss of antagonist activity
O=C(Nc1ccc(Br)cc1)c1cccs1 [OX1d, N-(4-bromophenyl)-2-thiophenecarboxamide] |  |  | failed to significantly improve antagonist activity | 
O=C(NC1CCCCC1)c1cccs1 [OX2, N-cyclohexyl-2-thiophenecarboxamide] |  |  | failed to significantly improve antagonist activity | 
CCn1c(SCC(=O)Nc2ccc(C(C)C)cc2)nnc1-c1ccncc1 [OLC12, 2-((4-ethyl-5-(4-pyridinyl)-4H-1,2,4-triazol-3-yl)sulfanyl)-N-(4-isopropylphenyl)-acetamide] |  |  |  | nH for OLC12 activation of Cqui\Orco+Cqui\Or21 (Cqui\Orco+Cqui\Or21 [3]): 1.42 ± 0.32; EC50 (Cqui\Orco+Cqui\Or21 [3]; read-out: EC50 for OLC12 activation of Cqui\Orco+Cqui\Or21): 6.6 ± 1.4 µM
Cc1cccc(C)c1NC(=O)c1sccc1Cl [OX1p, 3-chloro-N-(2,6-dimethylphenyl)-2-thiophenecarboxamide] | 1.2 ± 0.1 | 7.2 ± 0.6 µM |  | Antagonist activity compared with the parent analog or OX1a (second screen) (Cqui\Orco+Cqui\Or21 [2]): significant loss of antagonist activity
